Among the data in patent US20180155344A1, “TRICYCLIC PIPERIDINE COMPOUNDS” (ACTELION PHARMACEUTICALS LTD, priority 2015, published 2018) are IC50 values, retold here.

The test concerns the target T1, human TPH1 (Homo sapiens, UniProt P17752).
T1 sequence (P17752 1-444): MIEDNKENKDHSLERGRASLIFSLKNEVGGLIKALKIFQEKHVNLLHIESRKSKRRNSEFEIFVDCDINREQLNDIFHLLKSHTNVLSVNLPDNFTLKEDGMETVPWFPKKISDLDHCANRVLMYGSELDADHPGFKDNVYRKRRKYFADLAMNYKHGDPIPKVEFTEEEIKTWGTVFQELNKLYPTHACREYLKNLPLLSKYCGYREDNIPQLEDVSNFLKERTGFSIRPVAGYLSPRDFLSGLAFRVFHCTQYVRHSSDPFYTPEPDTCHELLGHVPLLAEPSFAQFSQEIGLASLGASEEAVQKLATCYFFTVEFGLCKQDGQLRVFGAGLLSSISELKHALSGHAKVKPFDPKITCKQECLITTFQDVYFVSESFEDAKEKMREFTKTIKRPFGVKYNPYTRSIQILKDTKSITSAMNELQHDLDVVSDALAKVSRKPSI
Put plainly: biochemical. Summed up: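 Inhibition is derived from 5-hydroxy-L-tryptophan fluorescence (540 nm emission, 300 nm excitation) after perchloric acid stop, relative to DMSO vehicle. Recombinant full-length human enzyme (40-80 nM) reacts with 40 μM tryptophan plus 100 μM methyltetrahydropterin, pH 7.6 Tris/DTT/catalase, 15° C, 60 min.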
As usually defined, the IC50 is the point on the concentration scale where inhibition reaches its midpoint. Low values mean greater potency in that assay, high ones weaker potency in that assay. `COc1ccc(C2c3c(nc4cc(C(F)(F)F)ccn34)CCN2C(=O)COc2cccc(C(F)(F)F)c2)cc1OC` (stereo not shown) [Example 3.1.9] registered an IC50 of 422 nM.
The figure for `COc1ccc(C2c3c(nc4cc(C(F)(F)F)ccn34)CCN2C(=O)COc2ccc(OC(F)(F)F)cc2)cc1OC` (stereo not shown) [Example 3.1.11] is 199 nM; for `COc1ccc(C2c3c(nc4cc(C(F)(F)F)ccn34)CCN2C(=O)COc2cc(C)ccc2Cl)cc1OC` (stereo not shown) [Example 3.1.12, 2-(2-chloro-5-methylphenoxy)-1-(1-(3,4-dimethoxyphenyl)-7-(trifluoromethyl)-3,4-dihydroimidazo[1,2-a:5,4-c′]dipyridin-2(1H)-yl)ethan-1-one] it is 64 nM.
The figure for `COc1ccc(C2c3c(nc4cc(C(F)(F)F)ccn34)CCN2C(=O)COc2cccc(C(F)(F)F)c2Cl)cc1OC` (stereo not shown) [Example 3.1.13, 2-(2-chloro-3-(trifluoromethyl)phenoxy)-1-(1-(3,4-dimethoxyphenyl)-7-(trifluoromethyl)-3,4-dihydroimidazo[1,2-a:5,4-c′]dipyridin-2(1H)-yl)ethan-1-one] is 19 nM; for `COc1ccc(C2c3c(nc4cc(C(F)(F)F)ccn34)CCN2C(=O)COc2cc(F)ccc2Cl)cc1OC` (stereo not shown) [Example 3.1.14] it is 103 nM.
The figure for `COc1ccc(C2c3c(nc4cc(C(F)(F)F)ccn34)CCN2C(=O)COc2cccnc2Cl)cc1OC` (stereo not shown) [Example 3.1.15, 2-((2-chloropyridin-3-yl)oxy)-1-(1-(3,4-dimethoxyphenyl)-7-(trifluoromethyl)-3,4-dihydroimidazo[1,2-a:5,4-c′]dipyridin-2(1H)-yl)ethan-1-one] is 67 nM.
As to `COc1ccc(C2c3c(nc4cc(C(F)(F)F)ccn34)CCN2C(=O)COc2cccnc2C)cc1OC` (stereo not shown) [Example 3.1.16], 266 nM corresponded to half-maximal inhibition (IC50).
The value for `COc1ccc(C2c3c(nc4cc(C(F)(F)F)ccn34)CCN2C(=O)COc2cccnc2Br)cc1OC` (stereo not shown) [Example 3.1.17, 2-((2-bromopyridin-3-yl)oxy)-1-(1-(3,4-dimethoxyphenyl)-7-(trifluoromethyl)-3,4-dihydroimidazo[1,2-a:5,4-c′]dipyridin-2(1H)-yl)ethan-1-one] was 20 nM; that for `COc1ccc(C2c3c(nc4cc(C(F)(F)F)ccn34)CCN2C(=O)COc2cnccc2Cl)cc1OC` (stereo not shown) [Example 3.1.18] was 235 nM; that for `COc1ccc(C2c3c(nc4cc(C(F)(F)F)ccn34)CCN2C(=O)COc2ccc3ncccc3c2)cc1OC` (stereo not shown) [Example 3.1.19] was 117 nM.
The value for `COc1ccc(C2c3c(nc4cc(C(F)(F)F)ccn34)CCN2C(=O)COc2ccc3ccncc3c2)cc1OC` (stereo not shown) [Example 3.1.20, 1-(1-(3,4-dimethoxyphenyl)-7-(trifluoromethyl)-3,4-dihydroimidazo[1,2-a:5,4-c′]dipyridin-2(1H)-yl)-2-(isoquinolin-7-yloxy)ethan-1-one] was 19 nM; that for `COc1ccc(C2c3c(nc4cc(C(F)(F)F)ccn34)CCN2C(=O)COc2ccc3c(c2)OCO3)cc1OC` (stereo not shown) [Example 3.1.21] was 116 nM; that for `COc1ccc(C2c3c(nc4cc(C(F)(F)F)ccn34)CCN2C(=O)COc2cnc3ccccc3c2)cc1OC` (stereo not shown) [Example 3.1.22] was 165 nM.
The figure for `COc1ccc(C2c3c(nc4cc(C(F)(F)F)ccn34)CCN2C(=O)COc2cnc3c(c2)ncn3C)cc1OC` (stereo not shown) [Example 3.1.23] is 382 nM.
In the case of `COc1ccc(C2c3c(nc4cc(C(F)(F)F)ccn34)CCN2C(=O)COc2cc(-c3ccccc3)nn2C)cc1OC` (stereo not shown) [Example 3.1.24], the midpoint of inhibition, the IC50, lay at 157 nM.
The figure for `COc1ccc(C2c3c(nc4cc(C(F)(F)F)ccn34)CCN2C(=O)COc2nn(C)c(C(F)(F)F)c2Cl)cc1OC` (stereo not shown) [Example 3.1.25, 2-((4-chloro-1-methyl-5-(trifluoromethyl)-1H-pyrazol-3-yl)oxy)-1-(1-(3,4-dimethoxyphenyl)-7-(trifluoromethyl)-3,4-dihydroimidazo[1,2-a:5,4-c′]dipyridin-2(1H)-yl)ethan-1-one] is 78 nM; for `COc1ccc(C2c3c(nc4cc(C(F)(F)F)ccn34)CCN2C(=O)COc2ccc(CN3CCOCC3)cc2Cl)cc1OC` (stereo not shown) [Example 3.1.26, 2-(2-chloro-4-(morpholinomethyl)phenoxy)-1-(1-(3,4-dimethoxyphe-nyl)-7-(trifluoromethyl)-3,4-dihydroimidazo[1,2-a:5,4-c′]dipyridin-2(1H)-yl)ethan-1-one] it is 17 nM.
In the case of `COc1ccc(C2c3c(nc4cc(C(F)(F)F)ccn34)CCN2C(=O)COc2ccc(CN3CCOCC3)nc2Cl)cc1OC` (stereo not shown) [Example 3.1.27, 2-((2-chloro-6-(morpholinomethyl)pyridin-3-yl)oxy)-1-(1-(3,4-dimethoxyphenyl)-7-(trifluoromethyl)-3,4-dihydroimidazo[1,2-a:5,4-c′]dipyridin-2(1H)-yl)ethan-1-one], half-maximal inhibition (IC50) was put at 84 nM.
The figure for `CCc1ccccc1OCC(=O)N1CCc2nc3cc(C(F)(F)F)ccn3c2C1c1ccc(OC)c(OC)c1` (stereo not shown) [Example 3.1.28] is 118 nM; for `CCc1cc(Cl)ccc1OCC(=O)N1CCc2nc3cc(C(F)(F)F)ccn3c2C1c1ccc(OC)c(OC)c1` (stereo not shown) [Example 3.1.29, 2-(4-chloro-2-ethylphenoxy)-1-(1-(3,4-dimethoxyphenyl)-7-(trifluoromethyl)-3,4-dihydroimidazo[1,2-a:5,4-c′]dipyridin-2(1H)-yl)ethan-1-one] it is 64 nM.
The figure for `CCc1ncccc1OCC(=O)N1CCc2nc3cc(C(F)(F)F)ccn3c2C1c1ccc(OC)c(OC)c1` (stereo not shown) [Example 3.1.30, 1-(1-(3,4-dimethoxyphenyl)-7-(trifluoromethyl)-3,4-dihydroimidazo[1,2-a:5,4-c′]dipyridin-2(1H)-yl)-2-((2-ethylpyridin-3-yl)oxy)ethan-1-one] is 36 nM; for `CCc1cc(Br)ccc1OCC(=O)N1CCc2nc3cc(C(F)(F)F)ccn3c2C1c1ccc(OC)c(OC)c1` (stereo not shown) [Example 3.1.31, 2-(4-bromo-2-ethylphenoxy)-1-(1-(3,4-dimethoxyphenyl)-7-(trifluoromethyl)-3,4-dihydroimidazo[1,2-a:5,4-c′]dipyridin-2(1H)-yl)ethan-1-one] it is 43 nM; for `CCc1cc(N2CCN(C)CC2)ccc1OCC(=O)N1CCc2nc3cc(C(F)(F)F)ccn3c2C1c1ccc(OC)c(OC)c1` (stereo not shown) [Example 3.1.32, 1-(1-(3,4-dimethoxyphenyl)-7-(trifluoromethyl)-3,4-dihydroimidazo[1,2-a:5,4-c′]dipyridin-2(1H)-yl)-2-(2-ethyl-4-(4-methylpiperazin-1-yl)phenoxy)ethan-1-one] it is 21 nM.
The value for `CCc1cc(N2CCOCC2)ccc1OCC(=O)N1CCc2nc3cc(C(F)(F)F)ccn3c2C1c1ccc(OC)c(OC)c1` (stereo not shown) [Example 3.1.33, 1-(1-(3,4-dimethoxyphenyl)-7-(trifluoromethyl)-3,4-dihydroimidazo[1,2-a:5,4-c′]dipyridin-2(1H)-yl)-2-(2-ethyl-4-morpholinophenoxy)ethan-1-one] was 12 nM; that for `COc1ccc(C2c3c(nc4cc(C(F)(F)F)ccn34)CCN2C(=O)COc2cccnc2C2CC2)cc1OC` (stereo not shown) [Example 3.1.35] was 336 nM; that for `O=C(COc1ccc(CN2CCOCC2)cc1Cl)N1CCc2nc3cc(C(F)(F)F)ccn3c2C1c1cccnc1F` (stereo not shown) [Example 3.2.1, 2-(2-chloro-4-(morpholinomethyl)phenoxy)-1-(1-(2-fluoropyridin-3-yl)-7-(trifluoromethyl)-3,4-dihydroimidazo[1,2-a:5,4-c′]dipyridin-2(1H)-yl)ethan-1-one] was 43 nM.
As for `O=C(COc1ccc2ccccc2c1)N1CCc2nc3cc(C(F)(F)F)ccn3c2C1c1cccnc1F` (stereo not shown) [Example 3.2.2, 1-(1-(2-fluoropyridin-3-yl)-7-(trifluoromethyl)-3,4-dihydroimidazo[1,2-a:5,4-c′]dipyridin-2(1H)-yl)-2-(naphthalen-2-yloxy)ethan-1-one], the IC50 is 82 nM.
Consider `Cc1ccc(OCC(=O)N2CCc3nc4cc(C(F)(F)F)ccn4c3C2c2cccnc2F)cc1` (stereo not shown) [Example 3.2.3, 1-(1-(2-fluoropyridin-3-yl)-7-(trifluoromethyl)-3,4-dihydroimidazo[1,2-a:5,4-c′]dipyridin-2(1H)-yl)-2-(p-tolyloxy)ethan-1-one], for which the IC50 worked out at 251 nM.
The figure for `COc1ccc(C2c3c(nc4cc(C(F)(F)F)ccn34)CCN2C(=O)COc2ccc3ccccc3c2)c(F)c1` (stereo not shown) [Example 3.3.1, 1-(1-(2-fluoro-4-methoxyphenyl)-7-(trifluoromethyl)-3,4-dihydroimidazo[1,2-a:5,4-c′]dipyridin-2(1H)-yl)-2-(naphthalen-2-yloxy)ethan-1-one] is 5 nM; for `COc1ccc(C2c3c(nc4cc(C(F)(F)F)ccn34)CCN2C(=O)COc2ccc(CN3CCOCC3)cc2Cl)c(F)c1` (stereo not shown) [Example 3.3.2, 2-(2-chloro-4-(morpholinomethyl)phenoxy)-1-(1-(2-fluoro-4-methoxyphenyl)-7-(trifluoromethyl)-3,4-dihydroimidazo[1,2-a:5,4-c′]dipyridin-2(1H)-yl)ethan-1-one] it is 7 nM; for `COc1ccc(C2c3c(nc4cc(C(F)(F)F)ccn34)CCN2C(=O)COc2ccc(CN3CCOCC3)c(C)c2C)c(F)c1` (stereo not shown) [Example 3.3.3, 2-(2,3-dimethyl-4-(morpholinomethyl)phenoxy)-1-(1-(2-fluoro-4-methoxyphenyl)-7-(trifluoromethyl)-3,4-dihydroimidazo[1,2-a:5,4-c′]dipyridin-2(1H)-yl)ethan-1-one] it is 8 nM.
